{"source": "ChEMBL document CHEMBL1201862", "about": "“PubChem BioAssay data set” (2004)", "key": {"Streptococcus [1]": {"tested_on": "Streptococcus", "experiment": "Luminescence Microorganism-Based Dose Response Follow up to Identify Compounds Cytotoxic to Streptococcus. [Related pubchem assays: 1677 (Project Summary), 1915, 1914, 1902 (Retest at Dose), 1900 (Counter Screen), 1662 (Primary HTS)]", "assay_type": "functional, organism-based"}, "[2]": {"tested_on": "Streptococcus sp. 'group A'", "experiment": "growth inhibition of control SK(-) GAS strain, dose response, counter-screen for streptokinase expression inhibitor project, luminescence, kanamycin, BacTiterGlo, confirmation (AID 1900)", "assay_type": "functional, organism-based"}, "Streptococcus [3]": {"tested_on": "Streptococcus", "experiment": "Group A Streptococcus viability loss, dose response, counter-screen for streptokinase expression inhibitor project, luminescence, BacTiterGlo (AID 1915)", "assay_type": "functional, organism-based"}, "Streptokinase A": {"molecular_target": "T1, Streptokinase A (Streptococcus pyogenes serotype M1, UniProt P10520)", "T1 sequence (P10520 whole entry)": "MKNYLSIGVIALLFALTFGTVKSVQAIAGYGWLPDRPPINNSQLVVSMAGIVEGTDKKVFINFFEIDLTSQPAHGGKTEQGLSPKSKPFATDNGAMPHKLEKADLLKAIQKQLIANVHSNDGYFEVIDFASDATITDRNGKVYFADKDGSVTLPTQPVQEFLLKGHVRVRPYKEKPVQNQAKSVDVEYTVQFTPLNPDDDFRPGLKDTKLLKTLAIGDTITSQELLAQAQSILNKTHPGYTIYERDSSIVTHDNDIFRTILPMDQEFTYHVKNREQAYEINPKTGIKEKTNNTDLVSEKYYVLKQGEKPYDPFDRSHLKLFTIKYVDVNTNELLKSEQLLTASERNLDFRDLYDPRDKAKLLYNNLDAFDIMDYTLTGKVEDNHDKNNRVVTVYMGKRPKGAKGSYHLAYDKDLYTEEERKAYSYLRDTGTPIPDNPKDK", "experiment": "S. pyogenes streptokinase expression inhibitors, potency, dose response, plasminogen activation absorbance, OD405 (AID 1914);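 further: secreted streptokinase activity via plasminogen activation per viability signal from cell pellet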", "assay_type": "functional, Streptococcus pyogenes M1 GAS"}, "Cytochrome P450 2D6": {"molecular_target": "Cytochrome P450 2D6 (Homo sapiens, UniProt P10635)", "sequence (P10635 whole entry)": "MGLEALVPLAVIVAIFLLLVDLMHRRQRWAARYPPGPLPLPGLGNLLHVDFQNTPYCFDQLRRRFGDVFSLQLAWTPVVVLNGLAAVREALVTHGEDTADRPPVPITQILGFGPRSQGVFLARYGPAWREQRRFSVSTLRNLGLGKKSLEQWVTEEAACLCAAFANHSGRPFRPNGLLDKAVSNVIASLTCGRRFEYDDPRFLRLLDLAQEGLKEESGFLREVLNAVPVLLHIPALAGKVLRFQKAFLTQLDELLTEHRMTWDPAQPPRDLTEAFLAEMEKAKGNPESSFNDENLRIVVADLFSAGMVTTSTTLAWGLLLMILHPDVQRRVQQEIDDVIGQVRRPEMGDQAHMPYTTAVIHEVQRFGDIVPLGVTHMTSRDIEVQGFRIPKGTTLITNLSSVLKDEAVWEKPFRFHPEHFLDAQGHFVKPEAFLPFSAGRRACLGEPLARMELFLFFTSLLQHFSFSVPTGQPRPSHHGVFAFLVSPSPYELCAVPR", "experiment": "qHTS Assay for Inhibitors and Substrates of Cytochrome P450 2D6. [Related pubchem assays: 410 ]", "assay_type": "ADME", "conditions": "read-out: Potency"}, "Bcl-2-like protein 10": {"molecular_target": "T2, Bcl-2-like protein 10 (Homo sapiens, UniProt Q9HD36)", "T2 sequence (Q9HD36 whole entry)": "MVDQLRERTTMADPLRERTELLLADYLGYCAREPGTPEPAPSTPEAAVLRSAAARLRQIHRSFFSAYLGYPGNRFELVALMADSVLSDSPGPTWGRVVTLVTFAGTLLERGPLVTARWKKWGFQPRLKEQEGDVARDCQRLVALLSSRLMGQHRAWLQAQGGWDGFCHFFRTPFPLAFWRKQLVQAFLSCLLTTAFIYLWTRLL", "experiment": "Biochemical TR3 FP assay of Bcl-B inhibitor potency, EC50 (AID 1243)", "assay_type": "functional"}, "[4]": {"molecular_target": "Serine/threonine-protein phosphatase (Homo sapiens, UniProt Q9BPW0)", "sequence (Q9BPW0 whole entry)": "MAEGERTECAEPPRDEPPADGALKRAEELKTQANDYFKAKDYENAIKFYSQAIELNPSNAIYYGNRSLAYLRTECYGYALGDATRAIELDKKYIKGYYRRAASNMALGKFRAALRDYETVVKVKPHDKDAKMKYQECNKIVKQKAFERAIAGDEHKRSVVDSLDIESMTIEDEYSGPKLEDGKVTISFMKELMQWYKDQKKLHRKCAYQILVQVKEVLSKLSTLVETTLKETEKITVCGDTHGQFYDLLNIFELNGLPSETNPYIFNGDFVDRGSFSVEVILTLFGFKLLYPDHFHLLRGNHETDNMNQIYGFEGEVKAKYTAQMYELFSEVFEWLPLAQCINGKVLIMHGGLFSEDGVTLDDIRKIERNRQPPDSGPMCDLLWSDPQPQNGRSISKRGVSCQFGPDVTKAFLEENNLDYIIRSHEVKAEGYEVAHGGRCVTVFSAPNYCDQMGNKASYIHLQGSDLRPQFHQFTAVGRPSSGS", "experiment": "Counterscreen for inhibitors of PP1: fluorescence-based biochemical high throughput dose response assay to identify inhibitors of Protein Phosphatase 5 (PP5). [Related pubchem assays: 2034 (Summary (PP5 inhibitors)), 1987 (PP5 inhibitors in singlate), 2235 (PP1 inhibitors in singlate)]"}, "[5]": {"molecular_target": "Serine/threonine-protein phosphatase PP1-alpha catalytic subunit (Homo sapiens, UniProt P62136)", "sequence (P62136 whole entry)": "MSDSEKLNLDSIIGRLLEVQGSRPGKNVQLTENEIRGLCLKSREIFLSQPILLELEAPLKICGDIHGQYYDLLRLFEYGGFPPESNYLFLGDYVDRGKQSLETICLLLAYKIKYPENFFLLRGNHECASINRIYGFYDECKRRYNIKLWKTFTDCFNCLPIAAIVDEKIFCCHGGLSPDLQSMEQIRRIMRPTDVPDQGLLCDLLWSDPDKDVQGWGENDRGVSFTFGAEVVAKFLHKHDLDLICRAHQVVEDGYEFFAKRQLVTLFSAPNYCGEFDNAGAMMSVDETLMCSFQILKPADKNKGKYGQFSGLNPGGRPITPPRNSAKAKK", "experiment": "PP1 phosphatase inhibitors, dose response, biochemical, fluorescence (AID 2403);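 further: phosphatase turnover of OMFP into fluorescent 3-O-methylfluorescein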"}, "NS3": {"molecular_target": "NS3 (Hepatitis C virus, UniProt A3EZJ3)", "sequence (A3EZJ3 whole entry)": "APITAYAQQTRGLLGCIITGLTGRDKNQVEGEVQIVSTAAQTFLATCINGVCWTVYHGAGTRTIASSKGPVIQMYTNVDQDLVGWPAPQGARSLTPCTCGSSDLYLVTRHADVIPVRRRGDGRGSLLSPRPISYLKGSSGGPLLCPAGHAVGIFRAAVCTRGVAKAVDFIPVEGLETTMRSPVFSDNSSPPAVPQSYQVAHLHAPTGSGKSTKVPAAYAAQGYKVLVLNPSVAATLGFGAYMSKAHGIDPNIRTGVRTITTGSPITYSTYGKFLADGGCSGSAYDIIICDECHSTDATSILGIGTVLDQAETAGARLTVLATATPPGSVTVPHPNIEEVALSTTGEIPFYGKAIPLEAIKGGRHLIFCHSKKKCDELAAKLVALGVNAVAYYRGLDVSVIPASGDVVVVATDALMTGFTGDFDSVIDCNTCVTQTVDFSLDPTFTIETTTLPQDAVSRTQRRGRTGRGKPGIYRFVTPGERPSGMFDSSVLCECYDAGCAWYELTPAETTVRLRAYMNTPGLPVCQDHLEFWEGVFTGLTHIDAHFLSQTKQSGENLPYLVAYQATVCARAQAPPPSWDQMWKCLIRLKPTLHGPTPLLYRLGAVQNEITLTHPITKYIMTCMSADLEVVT", "experiment": "PubChem AID 2173", "parameters": "species or system Hepacivirus hominis"}, "Estrogen receptor": {"molecular_target": "T3, Estrogen receptor (Homo sapiens, UniProt P03372)", "T3 sequence (P03372 whole entry)": "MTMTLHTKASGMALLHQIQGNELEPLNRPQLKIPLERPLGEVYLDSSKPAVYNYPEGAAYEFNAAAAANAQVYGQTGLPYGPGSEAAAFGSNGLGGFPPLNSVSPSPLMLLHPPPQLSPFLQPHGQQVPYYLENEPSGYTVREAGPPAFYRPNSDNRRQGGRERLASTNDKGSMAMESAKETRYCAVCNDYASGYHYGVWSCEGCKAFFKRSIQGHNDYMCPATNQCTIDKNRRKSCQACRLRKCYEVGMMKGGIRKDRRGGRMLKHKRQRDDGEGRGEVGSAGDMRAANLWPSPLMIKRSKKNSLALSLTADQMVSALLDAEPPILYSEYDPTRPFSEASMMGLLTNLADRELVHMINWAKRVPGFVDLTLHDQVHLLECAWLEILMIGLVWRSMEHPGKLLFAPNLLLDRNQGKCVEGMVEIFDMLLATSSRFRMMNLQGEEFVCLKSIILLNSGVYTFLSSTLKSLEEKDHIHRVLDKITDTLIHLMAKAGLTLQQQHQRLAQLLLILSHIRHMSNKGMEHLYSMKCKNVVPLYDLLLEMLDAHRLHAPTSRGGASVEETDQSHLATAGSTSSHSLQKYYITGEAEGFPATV"}, "Estrogen receptor beta [6]": {"molecular_target": "T4, Estrogen receptor beta (Homo sapiens, UniProt Q92731)", "T4 sequence (Q92731 whole entry)": "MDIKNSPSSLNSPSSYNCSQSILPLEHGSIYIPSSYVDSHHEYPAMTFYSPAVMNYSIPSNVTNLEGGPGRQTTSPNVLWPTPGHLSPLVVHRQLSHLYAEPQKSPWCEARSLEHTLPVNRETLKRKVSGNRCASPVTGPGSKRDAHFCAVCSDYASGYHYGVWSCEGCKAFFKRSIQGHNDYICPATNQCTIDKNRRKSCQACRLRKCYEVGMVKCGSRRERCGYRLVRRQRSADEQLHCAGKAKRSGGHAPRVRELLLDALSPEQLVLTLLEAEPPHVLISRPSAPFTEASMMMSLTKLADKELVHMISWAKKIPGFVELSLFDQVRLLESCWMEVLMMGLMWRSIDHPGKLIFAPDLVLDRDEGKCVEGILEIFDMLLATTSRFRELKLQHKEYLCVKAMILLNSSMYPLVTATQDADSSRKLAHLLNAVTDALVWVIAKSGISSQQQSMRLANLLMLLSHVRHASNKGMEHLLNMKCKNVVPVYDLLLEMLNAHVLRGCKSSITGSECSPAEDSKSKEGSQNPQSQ", "experiment": "ERβ–SRC-3 coactivator interaction inhibitors, confirmation, orthogonal assay, biochemical, ELISA, streptavidin-HRP readout (AID 1060)"}, "[7]": {"molecular_target": "Induced myeloid leukemia cell differentiation protein Mcl-1 (Homo sapiens, UniProt Q07820)", "sequence (Q07820 whole entry)": "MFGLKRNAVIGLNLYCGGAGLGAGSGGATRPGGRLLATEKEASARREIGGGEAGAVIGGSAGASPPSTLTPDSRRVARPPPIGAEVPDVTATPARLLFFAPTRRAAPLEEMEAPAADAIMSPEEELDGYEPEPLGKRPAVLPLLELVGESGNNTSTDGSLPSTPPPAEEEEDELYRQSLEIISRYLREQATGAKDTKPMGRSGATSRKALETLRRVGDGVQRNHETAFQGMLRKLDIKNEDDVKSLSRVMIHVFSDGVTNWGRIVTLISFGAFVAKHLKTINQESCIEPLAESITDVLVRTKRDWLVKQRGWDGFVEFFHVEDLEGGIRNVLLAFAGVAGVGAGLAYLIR", "assay_type": "functional"}, "Estrogen receptor beta [8]": {"molecular_target": "T4, Estrogen receptor beta"}, "Staphylococcus aureus": {"tested_on": "Staphylococcus aureus", "experiment": "Inhibitors of Bacterial Quorum Sensing Structure Activity Relationship (SAR) Analysis: Dose Response Assay. [Related pubchem assays: 700, 527 ]", "assay_type": "functional, organism-based"}, "[9]": {"molecular_target": "FAD-linked sulfhydryl oxidase ALR (Homo sapiens, UniProt P55789)", "sequence (P55789 whole entry)": "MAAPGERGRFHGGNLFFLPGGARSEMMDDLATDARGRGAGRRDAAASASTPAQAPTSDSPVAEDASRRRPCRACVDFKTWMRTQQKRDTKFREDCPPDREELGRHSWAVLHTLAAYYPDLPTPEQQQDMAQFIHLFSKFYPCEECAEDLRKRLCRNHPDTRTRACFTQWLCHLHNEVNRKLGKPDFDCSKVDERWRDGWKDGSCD", "experiment": "inhibitors of human ALR sulfhydryl oxidase, dose response, biochemical, H2O2 detection, luminescence, cherry-pick (AID 493248)"}, "[10]": {"molecular_target": "T5, Neuropeptide Y receptor type 1 (Homo sapiens, UniProt P25929)", "T5 sequence (P25929 whole entry)": "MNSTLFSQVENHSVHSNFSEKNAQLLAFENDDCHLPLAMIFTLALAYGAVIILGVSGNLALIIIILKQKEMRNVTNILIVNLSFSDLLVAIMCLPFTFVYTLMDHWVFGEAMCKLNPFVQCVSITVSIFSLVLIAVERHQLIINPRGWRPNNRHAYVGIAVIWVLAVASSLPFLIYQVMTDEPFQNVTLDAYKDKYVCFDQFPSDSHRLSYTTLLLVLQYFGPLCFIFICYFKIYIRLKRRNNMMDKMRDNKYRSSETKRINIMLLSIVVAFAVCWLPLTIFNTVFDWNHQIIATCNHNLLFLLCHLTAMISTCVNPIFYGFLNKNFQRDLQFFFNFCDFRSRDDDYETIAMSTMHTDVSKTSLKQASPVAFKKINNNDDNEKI", "experiment": "NPY-Y1 receptor antagonist potency, dose response, cell-based (AID 1277)", "assay_type": "functional"}, "[11]": {"molecular_target": "T6, Neuropeptide Y receptor type 2 (Homo sapiens, UniProt P49146)", "T6 sequence (P49146 whole entry)": "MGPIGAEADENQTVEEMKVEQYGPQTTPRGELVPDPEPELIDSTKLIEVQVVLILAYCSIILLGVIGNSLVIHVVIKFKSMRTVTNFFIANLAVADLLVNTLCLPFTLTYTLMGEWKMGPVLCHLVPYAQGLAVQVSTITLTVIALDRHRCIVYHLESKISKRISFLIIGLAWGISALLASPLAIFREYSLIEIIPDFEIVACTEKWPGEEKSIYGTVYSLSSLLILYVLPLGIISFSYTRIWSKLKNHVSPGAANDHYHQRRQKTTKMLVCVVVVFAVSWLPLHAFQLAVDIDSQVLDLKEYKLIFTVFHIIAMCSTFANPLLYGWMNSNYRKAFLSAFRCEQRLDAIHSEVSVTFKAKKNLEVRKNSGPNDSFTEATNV", "experiment": "NPY-Y2 antagonist potency, selectivity check, dose response, counter-screen for NPY-Y1 antagonist project, cell-based (AID 1278)", "assay_type": "functional"}, "[12]": {"molecular_target": "Lytic switch protein BZLF1 (Epstein-Barr virus (strain B95-8) (HHV-4) (Human herpesvirus 4), UniProt P03206)", "sequence (P03206 whole entry)": "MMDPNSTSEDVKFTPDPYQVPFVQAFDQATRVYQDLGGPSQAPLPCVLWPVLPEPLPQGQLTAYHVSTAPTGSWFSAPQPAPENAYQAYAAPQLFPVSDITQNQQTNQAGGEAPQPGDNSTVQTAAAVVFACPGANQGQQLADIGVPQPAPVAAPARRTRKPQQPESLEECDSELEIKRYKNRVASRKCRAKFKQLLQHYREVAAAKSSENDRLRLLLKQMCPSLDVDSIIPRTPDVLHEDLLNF", "experiment": "EBV ZTA inhibitors, dose response, counter-screen for EBNA-1 inhibitor project, biochemical, fluorescence polarization, Epstein-Barr virus, 1536-well (AID 2377);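 further: fluorescence polarization of Cy5-labelled ZRE DNA probe bound by purified Zta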", "parameters": "species or system human gammaherpesvirus 4"}, "[13]": {"molecular_target": "Epstein-Barr nuclear antigen 1 (Epstein-Barr virus (strain B95-8) (HHV-4) (Human herpesvirus 4), UniProt P03211)", "sequence (P03211 whole entry)": "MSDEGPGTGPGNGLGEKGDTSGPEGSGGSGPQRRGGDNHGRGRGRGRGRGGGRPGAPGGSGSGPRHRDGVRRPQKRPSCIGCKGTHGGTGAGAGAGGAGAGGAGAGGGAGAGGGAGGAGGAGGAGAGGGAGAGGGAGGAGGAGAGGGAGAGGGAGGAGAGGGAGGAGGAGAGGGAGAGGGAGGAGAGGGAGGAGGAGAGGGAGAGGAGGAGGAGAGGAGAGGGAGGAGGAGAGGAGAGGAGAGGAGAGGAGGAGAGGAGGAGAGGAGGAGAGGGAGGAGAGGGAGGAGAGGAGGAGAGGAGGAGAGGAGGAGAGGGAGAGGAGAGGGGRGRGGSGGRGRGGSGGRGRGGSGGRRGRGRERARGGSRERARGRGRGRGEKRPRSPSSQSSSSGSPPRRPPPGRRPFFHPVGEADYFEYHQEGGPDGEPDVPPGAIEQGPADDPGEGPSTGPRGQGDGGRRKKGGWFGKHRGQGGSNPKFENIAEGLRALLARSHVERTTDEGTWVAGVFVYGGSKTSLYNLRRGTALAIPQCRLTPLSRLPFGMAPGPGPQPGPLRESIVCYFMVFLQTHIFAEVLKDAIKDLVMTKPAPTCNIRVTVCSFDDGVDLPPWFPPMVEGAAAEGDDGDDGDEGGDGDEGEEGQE", "experiment": "EBNA-1 inhibitors, dose response, biochemical, fluorescence polarization, 1536-well (AID 2381);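 further: fluorescence polarization of a Cy5 DNA probe bound by EBNA-1 protein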", "parameters": "species or system human gammaherpesvirus 4"}}, "note": "The source made the active and inactive calls.", "data": [{"smiles": "COc1ccc(Nc2ncnc3scc(-c4ccc(OC)cc4)c23)cc1", "values": [{"measurement": "EC50", "setting": "Streptococcus [1]", "value": "> 500 µM (not active)"}, {"measurement": "EC50", "setting": "[2]", "value": "122 µM (active)"}, {"measurement": "EC50", "setting": "Streptococcus [3]", "value": "> 150 µM (not active)"}, {"measurement": "EC50", "setting": "Streptokinase A", "value": "10.5 µM (active)"}]}, {"smiles": "COC1=C[C@H]2[C@@H]3Cc4ccc(OC)c(O)c4[C@@]2(CCN3C)CC1=O", "values": [{"measurement": "AC50", "setting": "Cytochrome P450 2D6", "value": "20 µM (inconclusive)"}]}, {"smiles": "O=C(O)C1Nc2c(cccc2[N+](=O)[O-])C2C=CCC12", "note": "(configuration not stated)", "values": [{"measurement": "EC50", "setting": "Bcl-2-like protein 10", "value": "1.2 µM (active)"}]}, {"smiles": "O=S(=O)(Cc1cc(NCc2ccccc2)nc(-c2ccccn2)n1)c1ccccc1", "values": [{"measurement": "IC50", "setting": "[4]", "value": "> 67 µM (not active)"}, {"measurement": "EC50", "setting": "[2]", "value": "21 µM (active)"}, {"measurement": "IC50", "setting": "[5]", "value": "7.88 µM (active)"}, {"measurement": "EC50", "setting": "Streptococcus [3]", "value": "> 150 µM (not active)"}, {"measurement": "EC50", "setting": "Streptokinase A", "value": "> 150 µM (not active)"}]}, {"smiles": "C=CCSC1=N/C(=C\\C=C\\c2ccco2)C(=O)S1", "values": [{"measurement": "IC50", "setting": "NS3", "value": "11 µM (not active)"}, {"measurement": "IC50", "setting": "Estrogen receptor", "value": "> 50 µM (not active)"}, {"measurement": "IC50", "setting": "Estrogen receptor beta [6]", "value": "> 50 µM (not active)"}, {"measurement": "IC50", "setting": "[7]", "value": "5.61 µM (active)"}, {"measurement": "IC50", "setting": "Estrogen receptor beta [8]", "value": "10.3 µM (active)"}]}, {"smiles": "COc1c(F)c(F)c(C(=O)O)c(Nc2ccc(C)cc2C)c1F", "values": [{"measurement": "IC50", "setting": "Staphylococcus aureus", "value": "579 nM (active)"}, {"measurement": "AC50", "setting": "[9]", "value": "15.9 µM (active)"}]}, {"smiles": "COc1ccccc1CN(Cc1cc2cc(C)ccc2nc1O)Cc1nnnn1Cc1ccco1", "values": [{"measurement": "IC50", "setting": "[10]", "value": "22.7 µM (not active)"}, {"measurement": "IC50", "setting": "[11]", "value": "> 35 µM (not active)"}]}, {"smiles": "N#Cc1ccc(N2Cc3ccccc3/C2=N/C(=O)Nc2ccc(Cl)cc2)cc1", "values": [{"measurement": "IC50", "setting": "[12]", "value": "> 111 µM (not active)"}, {"measurement": "IC50", "setting": "[13]", "value": "8.14 µM (active)"}]}]}
